What was measured:
[1] = tested on: photosystem II (PSII) water-splitting complex in algal cells; conditions: cited from earlier work
[2] = tested on: algal system; assay: Competitive inhibition of photosynthetic H2 production by CO2; format: cell-based
Description: (2). Competitive inhibition of photosynthetic H2 production by CO2. […] This inhibition of H2 evolution by CO2 has been characterized in experimental studies at ORNL. […] Therefore, unless the alga is genetically reengineered to control the Calvin cycle activity, photosynthetic H2 production would require a nearly CO2-free environment.

[3] = tested on: photosystem II (PSII); conditions: addition of HCO3− to HCO3−-depleted samples; cited from earlier work
[4] = tested on: algal H2 production; assay: Competitive inhibition of photosynthetic H2 production by O2; format: cell-based
Description: (§1) (4). Competitive drainage of electrons by O2 in algal H2 production. We have recently discovered a new O2 sensitivity in algal H2 production that is distinct from the O2 sensitivity of hydrogenase per se. This O2 sensitivity is apparently linked to the photosynthetic H2 production pathway that is coupled to proton translocation across the thylakoid membrane. […] This inhibition is likely due to the background O2, which apparently serves as a terminal electron acceptor in competition with the H2-production pathway for photosynthetically generated electrons from water splitting. The Rubisco enzyme of the Calvin cycle is known to be also an oxygenase in addition to its carboxylase activity. […] That is, the drainage of electrons by O2 is likely to occur at the point of Rubisco, which is one of the key enzymes of the Calvin cycle. This competitive inhibition of H2 production by O2 is much more of a problem than the traditionally known O2 sensitivity of the hydrogenase per se. […] The competitive inhibition of H2 production by O2 is about 10 times more sensitive to O2 than the traditionally known O2 sensitivity of hydrogenase. The drainage of electrons by O2 in competition with the Fd/hydrogenase H2 production pathway is 10 time more sensitive to O2 than the O2 sensitivity of the hydrogenase. […]

[5] = tested on: algal hydrogenase; assay: O2 sensitivity of hydrogenase per se; format: biochemical
Description: as §1

SMILES: N#CC(C#N)=NNc1cccc(Cl)c1 [CCCP, carbonyl cyanide m-chlorophenylhydrazone]
- side effects on photosynthetic activity (ADRY effect) [1]: undesirable side effects

SMILES: O=C=O [CO2, carbon dioxide]
- steady-state H2 photoevolution after CO2 injection ([2]; injection of 58 ppm CO2): inhibited to nearly zero
- CO2 concentration to which the algal system is sensitive ([2]; lowest concentration, H2 photoevolution): 30 ppm

SMILES: O=C(O)O [HCO3^−, Bicarbonate]
- stimulation of PSII electron-transport activity [3]: 6- to 7 fold

SMILES: O=O [O2]
- O2 concentration that inhibits photosynthetic H2 production ([4]; lowest inhibiting concentration): 500-1000 ppm
- O2 sensitivity of competitive inhibition of H2 production relative to O2 sensitivity of hydrogenase ([4]; ratio versus hydrogenase O2 sensitivity): about 10 times
- O2 concentration at which algal hydrogenase is still active [5]: 5000 ppm

Source: US20110256613A1, “Designer proton-channel transgenic algae for photobiological hydrogen production” (priority 2006, published 2011)
